Values belong to the compound of their own block, whether it stands above or below them.
How the values were obtained:
[1] = Thermal stability of the PSS in the dark and fatigability over illumination cycles; format: physicochemical; conditions: for A(371 nm): Sup. Fig. 1G; for A(334 nm): Sup. Fig. 1K; for A(320 nm): Sup. Fig. 1C
Source text: , we focused on the three key properties allowing the use of azobenzenes in biological systems: (i) wavelengths for trans-to-cis and cis-to-trans conversions; (ii) compound thermalstability, i.e., half-life of the cis isomer in the dark; and (iii) fatigability, i.e., the number of illumination cycles that the molecule can undergo without degradation. To this aim, […] recording solution (Ringer pH 7.3; see Methods) either in the dark (absence of illumination) or after illumination by light wavelengths ranging from 350 to 580 nm (Figures 2B and S1M). In the dark (black curve in Figure 2B), the spectrum was characteristic of a trans isomer.[32] Application of UV light at a wavelength close to the main absorption peak of the trans form (365 or 350 nm) gave a completely different spectrum (violet curves in Figure 2B), characteristic of azobenzenes in their cis configuration.[32] […] states (PSS) containing 100% trans in the dark, 82% cis and 18% residual trans after illumination at 365 nm (365 nm PSS, violet curve in Figure 2C), and 91% cis and 9% residual trans after illumination at 350 nm (350 nm PSS, lavender curve in Figure 2C). […] from 435 to 550 nm gave equivalent cis-to-trans conversions with 435 and 550 nm yielding slightly stronger conversions (∼70% trans after illumination at 435 and 550 nm calculated from UV–visible spectra at λtrans = 329 nm, Figures 2B and S1N; 550 nm PSS of 69% trans and 31% cis measured by HPLC, Figure 2C, green trace). 550 nm was chosen as the optimal wavelength since green light is less harmful for cells than lights of shorter wavelengths. We then tested the thermal stability of the cis form in the dark (in the absence of illumination). […]
Thermal stability of the cis state (365 nm PSS) was measured by irradiating the solution with 365 nm light during 10 min, then letting it relax in the dark, at room temperature (20–22 °C), inside the spectrophotometer. Spectra were acquired at regular intervals, up to 1 day, after irradiation.

[2] = tested on: cultured cortical neurons at DIV 14; assay: NMDA excitotoxicity test, neuronal survival by MTT; format: cell-based, mouse; conditions: for neuronal survival: 5 µM inhibitor + 100 µM NMDA + 10 µM glycine; for % of survival, Mean: compound 5µM with NMDA 100µM, MTT A(540 nm) normalized to control (100) and NMDA alone (0)
Source text: We first investigated whether OptoNAM-3 could be used in the context of a patho-physiological process related to GluN1/GluN2B receptors. Overactivation of NMDARs induced by tonic exposure to glutamate or NMDA is well-known to trigger neuronal death.[6] GluN1/GluN2B receptors are thought to be the major player of this neurotoxicity, and GluN1/GluN2B antagonists have proven to be potent neuroprotectants in vitro and in vivo.[5],[15] To test the neuroprotective activity of OptoNAM-3 and its photodependence of action, we performed a protocol of excitotoxicity based on exposure to NMDA (100 μM) of cultured cortical neurons at DIV 14,[15] in the presence of OptoNAM-3. […] OptoNAM-3 in the dark, at a concentration of 5 μM, induced, like ifenprodil, an ∼50% increase in cell survival (Figure S4). […] OptoNAM-3 is therefore able to promote cell survival in neuron cultures in a photodependent manner.
Mice were housed in the IBENS rodent central facility duly accredited by the French Ministry of Agriculture. All experiments were performed in compliance with French and European regulations on care and protection of laboratory animals (EU Directive 2010/63, French Law 2013–118, February 6, 2013), and were approved by local ethics committees and by the French Ministry of Research and Innovation (authorization numbers #05137.02, APAFIS #28867-2020121814485893). Dissociated cultures of cortical neurons were prepared from mouse embryos at E18 as described previously.[84] After removing meninges, cortices were placed in ice-cold HBSS solution. Cell dissociation was performed individually for cortices of each embryo. Cortices were incubated in 2.5% trypsin at 37 °C for 7 min, rinsed three times with 37 °C phosphate buffer saline, and finally suspended in plating medium (Neurobasal Medium, supplemented with 0.5 mM L-glutamine, 1% B27 supplement, and penicillin/streptomycin). The neurons were further dissociated by trituration, and cells were plated on poly-D-lysine coated coverslips in 24-well culture dishes at a density of 3 × 10^5 cells per well for the excitotoxicity test and that of 1 × 10^5 cells per well for patch clamp experiments. Cultures were incubated at 37 °C in a humidified atmosphere of 5% CO2. Cells were fed by changing 1/2 medium to fresh Neurobasal medium every 4 days. For the excitotoxicity experiments, after 5 days in vitro, growth of non-neuronal cells was halted by a 24 h exposure to FDX ([…] 5-fluoro-2′-deoxyuridine). The cultures were used for experiments after 6 to 14 days in vitro (DIV6–8 for patch clamp experiments and DIV14 for excitotoxicity tests).
Excitotoxicity tests were performed 14 days after the culturing step as described in ref[15]. Just before the experiments, the neuronal medium was changed and the neurons incubated in the external patch recording solution (see above). Two replicates of 24 well plates containing cultured cortical neurons were exposed to the same 4 conditions, in which the following compounds were added to the medium: (1) glycine (10 μM) alone (control); (2) glycine (10 μM) + NMDA (100 μM); (3) glycine (10 μM) + NMDA (100 μM) + 5 μM ifenprodil; and (4) glycine (10 μM) + NMDA (100 μM) + 5 μM trans-OptoNAM-3 (dark). One of the two plates was exposed to UV light (Jena analytic US, UVP Hand-held UV lamp UVGL-58, power ∼1 mW) for 2 min. The two plates were then put back in the 37 °C incubator for 10 min. Agonist exposure was terminated by washing out the exposure solution with conditioned Neurobasal medium, prior to returning the dishes to the incubator for 24 h before assessment of neuronal death.
Overall neuronal cell death was determined 24 h after NMDA exposure by the MTT test. Mitochondrial and cytosolic dehydrogenases of living cells reduce the yellow tetrazolium salt (MTT) to produce a purple formazan dye that can be detected spectrophotometrically.[85] […]

[3] = Ringer pH 7.3, room temperature

thermal stability of the 365 nm PSS (mostly cis) in the dark: time without change of spectra [1, 3]: ≥ 60 min
A(371 nm) ([1]; 365 nm (t=0)): 0.257
A(371 nm) ([1]; 365 nm (t=1 min)): 0.255
A(371 nm) ([1]; 365 nm (t=5min)): 0.256
A(371 nm) ([1]; 365 nm (t=10 min)): 0.255
A(371 nm) ([1]; 365 nm (t=20 min)): 0.257
A(371 nm) ([1]; 365 nm (t=40min)): 0.258
A(371 nm) ([1]; 365 nm (t=60min)): 0.260
SMILES: Cc1cc(N)nc(/N=N/c2ccccc2)c1 [OptoNAM-2, (E)-4-methyl-6-(phenyldiazenyl)pyridin-2-amine]

thermal stability of the 365 nm PSS (mostly cis) in the dark: time without change of spectra [1, 3]: only little change
A(334 nm) ([1]; 365 nm (t=0)): 0.207
A(334 nm) ([1]; 365 nm (t=5 min)): 0.200
A(334 nm) ([1]; 365 nm (t=15 min)): 0.206
A(334 nm) ([1]; 365 nm (t=30min)): 0.211
A(334 nm) ([1]; 365 nm (t=40 min)): 0.208
A(334 nm) ([1]; 365 nm (t=60min)): 0.242
SMILES: CS(=O)(=O)Nc1ccc2nc(Cc3ccc(/N=N/c4ccccc4)cc3)[nH]c2c1 [OptoNAM-4, (E)-N-(2-(4-(phenyldiazenyl)benzyl)-1H-benzo[d]imidazol-6-yl)methanesulfonamide]

thermal stability of the 365 nm PSS (mostly cis) in the dark: time without change of spectra [1, 3]: ≥ 60 min
A(320 nm) ([1]; 365 nm (t=0)): 0.092
A(320 nm) ([1]; 365 nm (t=2 min)): 0.093
A(320 nm) ([1]; 365 nm (t=5min)): 0.093
A(320 nm) ([1]; 365 nm (t=10 min)): 0.093
A(320 nm) ([1]; 365 nm (t=20min)): 0.093
A(320 nm) ([1]; 365 nm (t=40min)): 0.094
A(320 nm) ([1]; 365 nm (t=60min)): 0.094
A(320 nm) ([1]; dark): 0.207
SMILES: Nc1ccnc(/N=N/c2ccccc2)c1 [OptoNAM-1, (E)-2-(phenyldiazenyl)pyridin-4-amine]

thermal stability of the 550 nm PSS in the dark: time without change of spectrum [1, 3]: ≥ 24 h
cycles of UV/green illumination without degradation ([1]; absorbance at 329 nm): ≥ 10 cycles
SMILES: c1ccc(/N=N/c2ccc(CCNc3ccncc3)cc2)cc1 [OptoNAM-3, (E)-N-(4-(Phenyldiazenyl)phenethyl)pyridin-4-amine]
neuronal survival ([2]; 2 min UV (365 nm), normalized to control and NMDA): 35%
neuronal survival ([2]; dark, normalized to control (100%) and NMDA (0%)): 50%
% of survival, Mean ([2]; Dark): 48.677%
% of survival, Mean ([2]; UV): 36.192%
